Laboratory results: patent US20080090916A1, “Compounds for Treating Urinary Incontinence” (priority 2005, published 2008)
“Also recorded” adds a separate entry of the source.

Assays:
[1] = tested on: vesicourethral junction sphincter muscle strips; test: Enzyme assay: regeneration of 1R,2S-methoxamine from compound (Ia) by gamma glutamyl transferase, reaction product tested on muscle strips; assay type: cell-based, pig; conditions: for response of muscle strips: 0.3 mM
Procedure: Regeneration of 1R,2S-methoxamine from the Compound of Formula (Ia)
Into a clean glass vial (1 ml volume) the following reaction mixtures were pipetted as follows:
200 μl compound of formula (Ia), 10 mg/ml in Tris buffer (mol. wt. 376, therefore=2 mg compound of formula (Ia)=5.3 μMoles), 100 μl solution E
Reaction product of groups 1, 2 and 3 were only tested for biological activity after 30 minutes of incubation period at 37° C. while that of group 4 were also tested after, 10, 30 and 60 minutes of incubation period. A 5 h group of which reaction mixture indicated in group four were diluted by two fold after 30 min incubation were also tested for biological activity.
Gamma glutamyl transferase, 2-1-18 porcine kidney was purchased from Calzyme Labs San Luis Obispo, Calif. 93401 USA, glyclglycine was obtained from Acros Organics, New Jersey, USA while L-glutamic acid 5-(4-nitroanilide) was purchased from Fluka Chemie Switzerland.
The reaction mixture was incubated in HOT BOX oven, size one incubator made by Gallenpark, England, while the absorbance was measured (@λmax 405 nm), using Anthos 2020 UV/VIS spectrophotometer.
Representative traces of pig vesicourethral junction sphincter muscle response to various enzyme reaction products are shown in FIG. 3 and representative traces of pig proximal sphincter muscle response to various enzyme reaction products are shown in FIG. 4. The enzyme reaction products tested are as follows: • FIG. 3a-50 mM Tris HCl buffer; • FIG. 3b-50 mM Tris HCl buffer, gamma glutamyl transferase. • FIG. 3c-50 mM Tris HCl buffer, MgCl2.6H2O, glycylglycine, compound of formula (Ia); • FIG. 4a-50 mM Tris HCl buffer, MgCl2.6H2O, glycylglycine, gamma glutamyl transferase, compound of formula (Ia); • FIG. 4b-0.3 mM 1R,2S-methoxamine.

[2] = tested on: pig vesicourethral junction sphincter muscle; test: Functional assay: dose response on isolated pig vesicourethral junction sphincter muscle strips; assay type: cell-based
From the text: Samples of female white landrace pig bladder and urethra were obtained from freshly slaughtered pigs at the local abattoir. The pigs were killed by exsanguination after initial stunning by electric shock. The anus, rectum, bladder and urethra were then excised en bloc during evisceration and immediately transferred into pre oxygenated Krebs' solution (1 mmol/l: NaCl 120, KCl 5.9 NaHCO3 15.4, CaCl2 2.5, MgCl2 1.2, glucose 11.5) and transported to the laboratory, where they were stored in the refrigerator (at 4° C.) until ready to be processed.
The location of the vesicourethral junction sphincter was then identified. The bladders were inflated via a transurethral catheter with 200 ml. fluid. The fluid was then gently squeeze towards the outlet, until a sharp narrowing of the bladder base becomes apparent (Dass, 1997; Dass et al., 2001). Tissue sections from this region were then denuded of urothelium, and dissected transversely into a number of muscle strips.
Muscle strips measuring about 5-6 mm by 2-3 mm with an average weight of 7 mg were dissected, fine (5/0) silk threads were tied at each end of the strips and each strip mounted vertically in a 0.2 ml capacity, perspex organ bath between two recessed platinum electrodes through which electrical field stimulation (EFS) could be delivered. Strips were constantly superfused with Krebs' solution (37° C.) at a rate of 1.5 ml 1 min. The Krebs' solutions were gassed with 97% oxygen 3% carbon dioxide. Drugs were delivered by substituting drug containing solutions of the desired concentration for Krebs' solutions.
The apparatus comprised of six organ baths in parallel allowing the study of six strips simultaneously as described by Brading and Sibley (1983). Each channel was calibrated with a 1 g weight attached to the transducer before each experiment, and tissues were tensioned to 1 g after mounting. Isomeric tension generated by the strips was measured using isomeric force displacement transducers, Pioden Dynamometer UFI transducers (Pioden Controls Ltd, Canterbury, Kent) or AD Instruments MLT050/D force transducers, amplified (Harvard Transducer/Amplifier, Harvard Apparatus Ltd, Edenbridge, Kent) and analyzed using MacLab Data Acquisition system (AD Instruments, Sydney, Australia) or AD Instruments OCTAL Bridge Amplifier connected to Power Lab/8SP (AD Instruments, Sydney, Australia) and Chart v3.6 software (Macintosh) or Chart v5 (PC).
Dose response curves for the various compounds were constructed by testing one drug on a pair of strip in each experiment. The preparations were subjected to a sequence of successive 10 s […] applications of increasing doses of drugs with intervening washout periods.
1R,2S-methoxamine hydrochloride, the compound of formula (Ia) and the compound of formula (III) were made available by Norgine International Research, Middlesex.
Responses were reported as either grams of tension or % maximum force and given as mean values ±SEM. EC50 values were used as a measure of potency. The EC50 values were measured from the graph of dose response curve using the kaleidograph graphical software applications. Results were assessed using statistical analysis software, StatView 5.0 (SAS Institute Inc.) using ANOVA followed by Fisher's test. Significant difference between data was assumed with p<0.05.

[3] = Solubility concentration of saturated solutions determined by HPLC; assay type: physicochemical
Procedure: The tightness of the cells and absence of air bubbles in the receptor phase was monitored and given at each sampling point.
So, from manufacturing of the solutions, the amount of the compound of formula (Ia) per solvent volume was known (documentation by balance print out). That amount was named a saturated solution. Afterwards the saturated solution was centrifuged and the solubility concentration of the clear supernatant of the solution was determined quantitatively by HPLC. The saturation factor was calculated from the ratio of saturated solution:solubility concentration. A high ratio represented a high level of infinite dose.

EC50 ([2]; Sus scrofa, contraction, from dose response curve, read-out: relative potencies (EC50)): 4.64 mM
saturation concentration in the acceptor medium ([3]; 0.9% NaCl 80%, PEG 400 20%, 0.1% NaN3): 130 mg/mL
solubility in Ethanol ([3]; Ethanol): high solubility
water solubility ([3]; water): high
solubility in both media ([3]; water and DMSO): high solubility
Structure (SMILES): COc1ccc(OC)c([C@@H](O)[C@H](C)NC(=O)CC[C@H](N)C(=O)O)c1 [compound of formula (Ia), (S)-2-Amino-4-[(1S,2R)-2-(2,5-dimethoxyphenyl)-2-hydroxy-1-methyl-ethylcarbamoyl]butyric acid]
response of muscle strips ([1]; prepared in saline): 1.15 g
response of muscle strips ([1]; prepared in tris buffer): 1.22 g
reduction of bladder activity of the reaction mixture ([1]; 2-fold dilution post 30 min incubation with the enzyme): 38%
contractile response ([1]; Mg^2+-glycylglycine-compound-enzyme mixture, 30 min incubation): 1.62 g
contractile response of pig bladder neck muscle ([1]; administered with gamma glutamyl transferase and glycylglycine, FIG. 4a): pronounced well defined contractile response
contractile response ([1]; buffer-Mg^2+-glycylglycine-compound, no enzyme, 30 min incubation): 0.12 g
contractile response ([1]; reaction mixture with enzyme, 10 min incubation): 1.52 g
contractile response ([1]; reaction mixture with enzyme, 60 min incubation): 1.10 g
contractile response of muscle strip (representative traces) ([2]; compound alone, FIG. 1): no significant contraction; also recorded: little or no activity
response over the dose range tested ([2]; dose range 10^−6M-10^−2M): failed to evoke any appreciable response
